Patent publication US6525001B1, “Substituted pyrimidine and pyridine herbicides” (Mid-American Commercialization Corporation, priority 1997, dated 2003)

Experiments:
Type in all cases: in vivo
[1] = test system: soybean (Glycine max); test: Test B pre-/postemergence; set-up: key: 0 is no effect; 10 is complete control
Source text: (§1) Seeds of bedstraw (Galium aparine), blackgrass (Alopecurus myosuroides), broadleaf signalgrass (Brachiaria decumbens), cocklebur (Xanthium strumarium), corn (Zea mays), crabgrass (Digitaria sanguinalis), giant foxtail (Setaria faberii), lambsquarters (Chenopodium album), momingglory (Ipomoea hederacea), pigweed (Amaranthus retroflexus), rape (Brassica napus), soybean (Glycine max), sugar beet (Beta vulgaris), velvetleaf (Abutilon theophrasti), wheat (Triticum aestivum), wild oat (Avena fatua) and purple nutsedge (Cyperus rotundus) tubers were planted and treated preemergence with test chemicals formulated in a non-phytotoxic solvent mixture which included a surfactant.
(§2) At the same time, these crop and weed species were also treated with postemergence applications of test chemicals formulated in the same manner. Plants ranged in height from 2 to 18 cm (1- to 4-leaf stage) for postemergence treatments. Plant species in the flood test consisted of rice (Oryza sativa), smallflower flatsedge (Cyperus difformis), duck salad (Heteranthera limosa) and bamyardgrass (Echinochloa crus-galli) grown to the 2-leaf stage for testing. Treated plants and controls were maintained in a greenhouse for twelve to sixteen days, after which all species were compared to controls and visually evaluated. Plant response ratings, summarized in Table B, are based on a scale of 0 to 10 where 0 is no effect and 10 is complete control. A dash (−) response means no test result.

[2] = test system: velvetleaf (Abutilon theophrasti); test: Test B pre-/postemergence; set-up: key: 0 is no effect; 10 is complete control
Source text: as §1, §2

[3] = test system: sugar beet (Beta vulgaris); test: Test B pre-/postemergence; set-up: key: 0 is no effect; 10 is complete control
Source text: as §1, §2

[4] = test system: wild oat (Avena fatua); test: Test B pre-/postemergence; set-up: key: 0 is no effect; 10 is complete control
Source text: as §1, §2

[5] = test system: cocklebur (Xanthium strumarium); test: Test B pre-/postemergence; set-up: key: 0 is no effect; 10 is complete control
Source text: as §1, §2

[6] = test system: bedstraw (Galium aparine); test: Test B pre-/postemergence; set-up: key: 0 is no effect; 10 is complete control
Source text: as §1, §2

[7] = test system: wheat (Triticum aestivum); test: Test B pre-/postemergence; set-up: key: 0 is no effect; 10 is complete control
Source text: as §1, §2

[8] = test system: purple nutsedge (Cyperus rotundus); test: Test B pre-/postemergence; set-up: key: 0 is no effect; 10 is complete control
Source text: as §1, §2

[9] = test system: giant foxtail (Setaria faberii); test: Test B pre-/postemergence; set-up: key: 0 is no effect; 10 is complete control
Source text: as §1, §2

[10] = test system: blackgrass (Alopecurus myosuroides); test: Test B pre-/postemergence; set-up: key: 0 is no effect; 10 is complete control
Source text: as §1, §2

[11] = test system: momingglory (Ipomoea hederacea); test: Test B pre-/postemergence; set-up: key: 0 is no effect; 10 is complete control
Source text: as §1, §2

[12] = test system: corn (Zea mays); test: Test B pre-/postemergence; set-up: key: 0 is no effect; 10 is complete control
Source text: as §1, §2

[13] = test system: broadleaf signalgrass (Brachiaria decumbens); test: Test B pre-/postemergence; set-up: key: 0 is no effect; 10 is complete control
Source text: as §1, §2

[14] = test system: rape (Brassica napus); test: Test B pre-/postemergence; set-up: key: 0 is no effect; 10 is complete control
Source text: as §1, §2

[15] = test system: crabgrass (Digitaria sanguinalis); test: Test B pre-/postemergence; set-up: key: 0 is no effect; 10 is complete control
Source text: as §1, §2

[16] = test system: pigweed (Amaranthus retroflexus); test: Test B pre-/postemergence; set-up: key: 0 is no effect; 10 is complete control
Source text: as §1, §2

[17] = test system: smallflower flatsedge (Cyperus difformis); test: Test B flood test
Method in brief: (§3)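 Plants were grown to the 2-leaf stage before treatment with test chemical, then held in a greenhouse for twelve to sixteen days. Injury was visually rated against untreated controls on a 0–10 scale, where 0 is no effect and 10 is complete control.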

[18] = test system: duck salad (Heteranthera limosa); test: Test B flood test
Method in brief: as §3

[19] = test system: rice (Oryza sativa); test: Test B flood test
Method in brief: as §3

[20] = test system: bamyardgrass (Echinochloa crus-galli); test: Test B flood test
Method in brief: as §3

[21] = Rate 62 g/ha, Postemergence (flood test)
[22] = Rate 125 g/ha, Postemergence, flood test
[23] = Rate 250 g/ha, Postemergence (flood test species)

Structure (SMILES): Cc1cnc(-c2ccc(F)c(Cl)c2)nc1Cc1cccc(C(F)(F)F)c1 [Compound 25]
- Plant response rating, Soybean ([1]; Rate 62 g/ha, Postemergence): 4
- Soybean plant response rating ([1]; Rate 62 g/ha, Preemergence): 0
- Plant response rating, Soybean ([1]; Rate 125 g/ha, Postemergence): 7
- Soybean plant response rating ([1]; Rate 125 g/ha, Preemergence): 0
- Plant response rating, Soybean ([1]; Rate 250 g/ha, Postemergence): 7
- Plant response rating, Soybean ([1]; Rate 250 g/ha, Preemergence): 1
- Plant response rating, Velvetleaf ([2]; Rate 62 g/ha, Postemergence): 8
- Velvetleaf plant response rating ([2]; Rate 62 g/ha, Preemergence): 0
- Plant response rating, Velvetleaf ([2]; Rate 125 g/ha, Postemergence): 9
- Velvetleaf plant response rating ([2]; Rate 125 g/ha, Preemergence): 0
- Plant response rating, Velvetleaf ([2]; Rate 250 g/ha, Postemergence): 9
- Plant response rating, Velvetleaf ([2]; Rate 250 g/ha, Preemergence): 2
- Plant response rating, Sugarbeets ([3]; Rate 62 g/ha, Postemergence): 10
- Sugarbeets plant response rating ([3]; Rate 62 g/ha, Preemergence): 6
- Plant response rating, Sugarbeets ([3]; Rate 125 g/ha, Postemergence): 10
- Sugarbeets plant response rating ([3]; Rate 125 g/ha, Preemergence): 8
- Plant response rating, Sugarbeets ([3]; Rate 250 g/ha, Postemergence): 10
- Plant response rating, Sugarbeets ([3]; Rate 250 g/ha, Preemergence): 9
- Plant response rating, Wild oats ([4]; Rate 62 g/ha, Postemergence): 3
- Wild oats plant response rating ([4]; Rate 62 g/ha, Preemergence): 1
- Plant response rating, Wild oats ([4]; Rate 125 g/ha, Postemergence): 3
- Wild oats plant response rating ([4]; Rate 125 g/ha, Preemergence): 3
- Plant response rating, Wild oats ([4]; Rate 250 g/ha, Postemergence): 4
- Plant response rating, Wild oats ([4]; Rate 250 g/ha, Preemergence): 5
- Plant response rating, Cocklebur ([5]; Rate 62 g/ha, Postemergence): 9
- Cocklebur plant response rating ([5]; Rate 62 g/ha, Preemergence): 0
- Plant response rating, Cocklebur ([5]; Rate 125 g/ha, Postemergence): 9
- Cocklebur plant response rating ([5]; Rate 125 g/ha, Preemergence): 0
- Plant response rating, Cocklebur ([5]; Rate 250 g/ha, Postemergence): 9
- Plant response rating, Cocklebur ([5]; Rate 250 g/ha, Preemergence): 8
- Plant response rating, Bedstraw ([6]; Rate 62 g/ha, Postemergence): 9
- Bedstraw plant response rating ([6]; Rate 62 g/ha, Preemergence): 1
- Plant response rating, Bedstraw ([6]; Rate 125 g/ha, Postemergence): 10
- Bedstraw plant response rating ([6]; Rate 125 g/ha, Preemergence): 1
- Plant response rating, Bedstraw ([6]; Rate 250 g/ha, Postemergence): 10
- Plant response rating, Bedstraw ([6]; Rate 250 g/ha, Preemergence): 2
- Plant response rating, Wheat ([7]; Rate 62 g/ha, Postemergence): 2
- Wheat plant response rating ([7]; Rate 62 g/ha, Preemergence): 0
- Plant response rating, Wheat ([7]; Rate 125 g/ha, Postemergence): 4
- Wheat plant response rating ([7]; Rate 125 g/ha, Preemergence): 1
- Plant response rating, Wheat ([7]; Rate 250 g/ha, Postemergence): 4
- Plant response rating, Wheat ([7]; Rate 250 g/ha, Preemergence): 2
- Plant response rating, Nutsedge ([8]; Rate 62 g/ha, Postemergence): 1
- Nutsedge plant response rating ([8]; Rate 62 g/ha, Preemergence): 0
- Plant response rating, Nutsedge ([8]; Rate 125 g/ha, Postemergence): 1
- Nutsedge plant response rating ([8]; Rate 125 g/ha, Preemergence): 0
- Plant response rating, Nutsedge ([8]; Rate 250 g/ha, Postemergence): 2
- Plant response rating, Nutsedge ([8]; Rate 250 g/ha, Preemergence): 0
- Plant response rating, Giant foxtail ([9]; Rate 62 g/ha, Postemergence): 3
- Giant foxtail plant response rating ([9]; Rate 62 g/ha, Preemergence): 1
- Plant response rating, Giant foxtail ([9]; Rate 125 g/ha, Postemergence): 6
- Giant foxtail plant response rating ([9]; Rate 125 g/ha, Preemergence): 4
- Plant response rating, Giant foxtail ([9]; Rate 250 g/ha, Postemergence): 8
- Plant response rating, Giant foxtail ([9]; Rate 250 g/ha, Preemergence): 9
- Plant response rating, Blackgrass ([10]; Rate 62 g/ha, Postemergence): 3
- Blackgrass plant response rating ([10]; Rate 62 g/ha, Preemergence): 1
- Plant response rating, Blackgrass ([10]; Rate 125 g/ha, Postemergence): 4
- Blackgrass plant response rating ([10]; Rate 125 g/ha, Preemergence): 5
- Plant response rating, Blackgrass ([10]; Rate 250 g/ha, Postemergence): 8
- Plant response rating, Blackgrass ([10]; Rate 250 g/ha, Preemergence): 8
- Plant response rating, Morningglory ([11]; Rate 62 g/ha, Postemergence): 10
- Morningglory plant response rating ([11]; Rate 62 g/ha, Preemergence): 3
- Plant response rating, Morningglory ([11]; Rate 125 g/ha, Postemergence): 10
- Morningglory plant response rating ([11]; Rate 125 g/ha, Preemergence): 3
- Plant response rating, Morningglory ([11]; Rate 250 g/ha, Postemergence): 10
- Plant response rating, Morningglory ([11]; Rate 250 g/ha, Preemergence): 10
- Plant response rating, Corn ([12]; Rate 62 g/ha, Postemergence): 1
- Corn plant response rating ([12]; Rate 62 g/ha, Preemergence): 0
- Plant response rating, Corn ([12]; Rate 125 g/ha, Postemergence): 2
- Corn plant response rating ([12]; Rate 125 g/ha, Preemergence): 0
- Plant response rating, Corn ([12]; Rate 250 g/ha, Postemergence): 3
- Plant response rating, Corn ([12]; Rate 250 g/ha, Preemergence): 0
- Plant response rating, B. signalgrass ([13]; Rate 62 g/ha, Postemergence): 2
- B. signalgrass plant response rating ([13]; Rate 62 g/ha, Preemergence): 1
- Plant response rating, B. signalgrass ([13]; Rate 125 g/ha, Postemergence): 3
- B. signalgrass plant response rating ([13]; Rate 125 g/ha, Preemergence): 2
- Plant response rating, B. signalgrass ([13]; Rate 250 g/ha, Postemergence): 3
- Plant response rating, B. signalgrass ([13]; Rate 250 g/ha, Preemergence): 6
- Plant response rating, Rape ([14]; Rate 62 g/ha, Postemergence): 10
- Rape plant response rating ([14]; Rate 62 g/ha, Preemergence): 2
- Plant response rating, Rape ([14]; Rate 125 g/ha, Postemergence): 10
- Rape plant response rating ([14]; Rate 125 g/ha, Preemergence): 7
- Plant response rating, Rape ([14]; Rate 250 g/ha, Postemergence): 10
- Plant response rating, Rape ([14]; Rate 250 g/ha, Preemergence): 10
- Plant response rating, Crabgrass ([15]; Rate 62 g/ha, Postemergence): 7
- Crabgrass plant response rating ([15]; Rate 62 g/ha, Preemergence): 0
- Plant response rating, Crabgrass ([15]; Rate 125 g/ha, Postemergence): 7
- Crabgrass plant response rating ([15]; Rate 125 g/ha, Preemergence): 0
- Plant response rating, Crabgrass ([15]; Rate 250 g/ha, Postemergence): 10
- Plant response rating, Crabgrass ([15]; Rate 250 g/ha, Preemergence): 1
- Plant response rating, Redroot pigweed ([16]; Rate 62 g/ha, Postemergence): 10
- Redroot pigweed plant response rating ([16]; Rate 62 g/ha, Preemergence): 1
- Plant response rating, Redroot pigweed ([16]; Rate 125 g/ha, Postemergence): 10
- Redroot pigweed plant response rating ([16]; Rate 125 g/ha, Preemergence): 3
- Plant response rating, Redroot pigweed ([16]; Rate 250 g/ha, Postemergence): 10
- Plant response rating, Redroot pigweed ([16]; Rate 250 g/ha, Preemergence): 9
- Plant response rating, S. Flatsedge [17, 21]: 3
- Plant response rating, S. Flatsedge [17, 22]: 5
- Plant response rating, S. Flatsedge [17, 23]: 7
- Plant response rating, Ducksalad [18, 21]: 3
- Plant response rating, Ducksalad [18, 22]: 4
- Plant response rating, Ducksalad [18, 23]: 6
- Plant response rating, Rice [19, 21]: 3
- Plant response rating, Rice [19, 22]: 4
- Plant response rating, Rice [19, 23]: 5
- Plant response rating, Barnyardgrass [20, 21]: 3
- Plant response rating, Barnyardgrass [20, 22]: 4
- Plant response rating, Barnyardgrass [20, 23]: 5
